The record followed here is patent US12540197B2, “Anti-tissue factor antibodies and antibody conjugates, compositions comprising anti-tissue factor antibodies or antibody conjugates, and methods of making and using anti-tissue factor antibodies and antibody conjugates” (SUTRO BIOPHARMA, INC., priority 2023, dated 2026).

This assay deals with BxPC3 cells. Nature of the assay: Secondary ADC cell killing assay (antibody + anti-human Fc nanobody conjugated to SC236) on BxPC3. In kind it is cell-based. The conditions noted are these: Table 15, scFv-Fc from SRP2842; nanobody-SC236 20 nM, 120 hrs. As to the method:
The internalization ability of the lead antibodies was evaluated by an ADC cell killing assay on Tissue Factor positive BxPC3 cells. A total of 625 cells in a volume of 25 μL were seeded in each well of a 384-well flat bottom white polystyrene plate. Lead antibodies were formulated at 4-fold starting concentration in the cell culture medium and filtered through MultiScreenHTS 96-Well Filter Plates (Millipore; Billerica, Massachusetts). 12.5 μL of antibody was added into each treatment well, and 12.5 μL of anti-human Fc nanobody conjugated to SC236 was then added into each well at a fixed final concentration of 20 nM. Assay plates were cultured at 37° C. in a CO2 incubator for 120 hrs before assay. For cell viability measurement, 30 μL of Cell Titer-Glo® reagent (Promega Corp. Madison, WI) was added into each well, and plates were processed as per product instructions. Relative luminescence was measured on an ENVISION® plate reader (Perkin-Elmer; Waltham, MA). Relative luminescence readings were converted to percent viability using untreated cells as controls. Data was fitted with non-linear regression analysis, using a log (inhibitor) vs. response-variable slope, 4 parameter fit with GraphPad Prism (GraphPad v 5.0, Software; San Diego, California).

Tisotumab: the “BxPC3 Cell Killing Span (%)” value was 94.7% and the EC50 was found to be 0.023 nM.
